Reference: patent US12173088B2, “Anti-microbial peptides” (priority 2018, dated 2024)
Values after ≈ are worked out from the molar mass of the structure shown. Where two headings read alike, the source gives them in different places.

Experiments:
[1] = test system: K. pneumoniae E406-17 biofilms; assay: Biofilm disruption and attachment; assay type: cell-based, Klebsiella pneumoniae
Description: Briefly, S. aureus USA300 and K. pneumoniae E406-17 (10^5 CFU/mL) were prepared from exponentially phase. Each well of the microtiter plate (Corning Costar® Cat No. 3595) was aliquoted with 180 μL of inoculum and the plates were incubated at 37° C. for 48 hours to form biofilm. Culture treated with water served as a positive control while media without bacterial inoculation served as the negative control. Media was aspirated post incubation and the attached biofilms were washed with 1×PBS to remove the planktonic bacteria. Each well was aliquoted with 20 μL of 10× peptide solution and 180 μL of fresh TSB media, plates were further incubated at 37° C. for 24 hours. Media aspirated from the wells and washed with 1×PBS to remove planktonic cells. Live cells in the biofilms were quantitated using XTT [2,3-bis(2-methyloxy-4-nitro-5-sulfophenyl)-2H-tertazolium-5-carboxanilide] assay by following the manufacturer's instructions with modifications. 180 μL of fresh TSB and 20 μL of XTT solution was added to each well and the plates further incubated at 37° C. for 2 hours. Absorbance was read at 450 nm (only media with XTT containing wells served as the blank) using a Chromate® microtiter plate reader. Percentage biofilm growth for the peptide was plotted by assuming 100% biofilm growth in bacterial control alone. The data is mean±SD, the significance at […]. […]

P. aeruginosa E411-17 = assay: microbe, parasite or virus in culture; assay type: cell-based, Pseudomonas aeruginosa; details: Pseudomonas aeruginosa, E41117; Table 14; read-out: MIC P. aeruginosa E411-17
Summary of the method: (§1)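 Broth microdilution: log-phase cultures in tryptic soy broth diluted to OD600 0.001, exposed to two-fold diluted peptides at 37° C overnight, growth read at 630 nm. Medium effects on S. aureus USA300 tested with up to 200 mM NaCl, 2 mM CaCl2, 5-10% human serum, mouse plasma, fluids or tissue homogenate supernatants.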

E. coli E423-17 = assay: microbe, parasite or virus in culture; assay type: cell-based, Escherichia coli; details: Escherichia coli, E42317; Table 14; read-out: MIC E. coli E423-17
Summary of the method: as §1

K. pneumoniae E406-17 = assay: microbe, parasite or virus in culture; assay type: cell-based, Klebsiella pneumoniae; details: Klebsiella pneumoniae, E40617; Table 14; read-out: MIC K. pneumoniae E406-17
Summary of the method: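 Broth microdilution in tryptic soy broth: log-phase cultures (OD600 ≈0.5) diluted to OD600 0.001, given two-fold peptide dilutions, incubated overnight at 37° C. Growth read at 630 nm.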

S. aureus USA300 [2] = assay: microbe, parasite or virus in culture; assay type: cell-based, Staphylococcus aureus; details: Staphylococcus aureus, MRSA / USA300; Table 14; read-out: MIC S. aureus USA300 (MRSA)
Summary of the method: as §1

A. baumannii B26-16 = assay: microbe, parasite or virus in culture; assay type: cell-based, Acinetobacter baumannii; details: Acinetobacter baumannii, B2616; Table 14; read-out: MIC A. baumannii B26-16
Summary of the method: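 Broth microdilution in tryptic soy broth: log-phase cultures diluted to 0.001 OD600 and exposed to peptide dilutions overnight at 37 °C, growth read at 630 nm. For S. aureus USA300, medium effects tested at pH 6.8, 7.2 and 8.0, with 150 mM NaCl, or with 5–10% human serum, mouse plasma or peritoneal fluid.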

E. faecium V286-17 (VRE) = assay: microbe, parasite or virus in culture; assay type: cell-based, Enterococcus faecium; details: Enterococcus faecium, VRE, read-out: MIC E. faecium V286-17 (VRE)
Summary of the method: as §1

S. aureus USA300 [3] = assay type: cell-based, Staphylococcus aureus
Description: The experiment was carried out similar to the MIC determination with a few modifications (Ge, et al. (1999) Antimicrob. Agents Chemother., 43:782-788; Ling, et al. (2015) Nature 520:388). In short, an exponential phase S. aureus USA300 culture (i.e., optical density at 600 nm≈0.5) was diluted and partitioned into a 96-well polystyrene microplate with ˜10^5 colony forming units (CFU) per well (90 μL aliquots). After treatment with 10 μL of peptide or antibiotics solutions at various concentrations, microplates were incubated at 37° C. overnight and read on a ChroMate® 4300 Microplate Reader at 630 nm (GMI). […] Plots were made to determine the increase in the fold change (MIC on given passage/MIC recorded in first day of passage).
This experiment was performed similar to the MIC determination with a few modifications. […] After treatment with 10 μL of peptide or antibiotics solutions at various concentrations, microplates were incubated at 37° C. overnight and read on a ChroMate® Microplate Reader at 630 nm (GMI). […] The increase in the fold change (MIC on given passage/MIC recorded in first day of passage) used to determine the degree of drug resistance.

S. aureus M838-17 (MRSA) = assay: microbe, parasite or virus in culture; assay type: cell-based, Staphylococcus aureus; details: Staphylococcus aureus, MRSA; Table 7; by weight; read-out: MIC S. aureus M838-17 (MRSA)
Summary of the method: as §1

[4] = test system: clinical strains of methicillin-resistant and susceptible S. aureus; assay: microbe, parasite or virus in culture; details: for MIC: Staphylococcus aureus
Description: The antibacterial activity of peptides was evaluated using a standard broth microdilution protocol with minor modifications (Mishra, et al. (2017) Acta Biomater., 49:316-328). In brief, logarithmic phase bacterial cultures (i.e., optical density at 600 nm≈0.5) were diluted to 0.001 OD and aliquoted 90 μL per well into a 96-well polystyrene microplate. Added 10 μL peptides per well with various concentrations, plates were incubated at 37° C., overnight. Post incubation the plates are read at 630 nm using a ChroMate® Microplate Reader (GMI). […] To study the influence of medium conditions on the antimicrobial activity of peptides against S. aureus USA300 at different pHs (6.8, 7.2, and 8.0), 150 mM sodium chloride (NaCl), 5-10% of human serum, mouse plasma, and peritoneal fluid were included into the assays.

[5] = test system: S. aureus USA300 biofilms; details: 48-hour biofilms
Description: The antibiofilm activity of the peptide against 24 hours established biofilms was evaluated. In short, S. aureus USA300 (10^5 CFU/mL) was made from exponential phase bacteria in TSB media and 200 μL was distributed to each well of the microtiter plate (Corning Costar Cat No. 3595). The plates were incubated at 37° C. for 24 hours to form biofilm. Culture treated with water served as a positive control while media without bacterial inoculation served as the negative control. Media was then pipetted out and the attached biofilms were washed with 1×PBS to remove the planktonic bacteria. Each well of the plate was then filled with 20 μL of 10× peptide solution and 180 μL of fresh TSB media and the plates were further incubated at 37° C. for 24 hours. Media was then pipetted out and the wells were washed with 1×PBS to remove planktonic cells. Live cells in the biofilms were then quantitated using XTT [2,3-bis(2-methyloxy-4-nitro-5-sulfophenyl)-2H-tertazolium-5-carboxanilide] assay by following the manufacturer's instructions with modifications. 180 μL of fresh TSB and 20 μL of XTT solution was added to each well and the plates were again incubated at 37° C. for 2 hours. Absorbance at 450 nm (only media with XTT containing wells served as the blank) was obtained using a ChroMate® microtiter plate reader. […]

**Q.** What does the source list for `C[C@@H](O)[C@H]1C(=O)N2C(C(=O)O)=C(S[C@@H]3CN[C@H](CNS(N)(=O)=O)C3)[C@H](C)[C@H]12` [Doripenem, reference compound]?
**A.** Adhesion/attachment of K. pneumoniae [1]: showed no effect; Effect on 48-hour preformed biofilms ([1]; 48-hour biofilms): showed no effect; MIC (P. aeruginosa E411-17): 2 µM (≈ 0.841 µg/mL); MIC (E. coli E423-17): 1 µM (≈ 0.421 µg/mL); MIC (K. pneumoniae E406-17): 0.5 µM (≈ 0.21 µg/mL); MIC (S. aureus USA300 [2]): 0.25 µM (≈ 0.105 µg/mL); MIC (A. baumannii B26-16): > 8 µM; MIC (E. faecium V286-17 (VRE); Table 14): > 8 µM

**Q.** Which MIC increase (S. aureus USA300 [3]; after 16 passages, sub-MIC level) does the source give for `CCOc1ccc2ccccc2c1C(=O)N[C@@H]1C(=O)N2[C@@H]1SC(C)(C)[C@@H]2C(=O)O` [Nafcillin] here?
**A.** 1000 fold

**Q.** And the “Resistance development” value (S. aureus USA300 [3]; multiple passage experiment)?
**A.** developed resistance

**Q.** What about the MIC (S. aureus M838-17 (MRSA)) of the same molecule?
**A.** 0.78 to 1.56 µM (≈ 0.323 to 0.647 µg/mL)

**Q.** What about the MIC ([4]; MSSA, strain B243-16 MSSA) of the same molecule?
**A.** < 0.25 µM

**Q.** What about the MIC ([4]; MSSA, strain B254-16 MSSA) of the same molecule?
**A.** < 0.25 µM

**Q.** And the MIC ([4]; MSSA, strain B255-16 MSSA)?
**A.** < 0.25 µM

**Q.** And the MIC ([4]; MSSA, strain B262-16 MSSA)?
**A.** 0.5 µM (≈ 0.207 µg/mL)

**Q.** What about the MIC ([4]; MSSA, strain B269-16 MSSA) of the same molecule?
**A.** 0.5 µM (≈ 0.207 µg/mL)

**Q.** And the MIC ([4]; NEWMAN, strain Newman)?
**A.** 0.25 µM (≈ 0.104 µg/mL)

**Q.** What about the MIC ([4]; USA200, strain USA200) of the same molecule?
**A.** > 8 µM

**Q.** And the MIC ([4]; USA300, strain USA300)?
**A.** 0.5 µM (≈ 0.207 µg/mL)

**Q.** And the MIC ([4]; USA400, strain USA400)?
**A.** 1 µM (≈ 0.414 µg/mL)

**Q.** And the MIC ([4]; strain M106-16)?
**A.** 2 µM (≈ 0.829 µg/mL)

**Q.** What about the MIC ([4]; strain M108-16) of the same molecule?
**A.** 1 µM (≈ 0.414 µg/mL)

**Q.** What about the MIC ([4]; strain M109-16) of the same molecule?
**A.** 1 µM (≈ 0.414 µg/mL)

**Q.** What about the MIC ([4]; strain M111-16) of the same molecule?
**A.** 8 µM (≈ 3.32 µg/mL)

**Q.** What about the MIC ([4]; strain M112-16) of the same molecule?
**A.** 0.5 µM (≈ 0.207 µg/mL)

**Q.** What about the MIC ([4]; strain M113-16) of the same molecule?
**A.** 0.5 µM (≈ 0.207 µg/mL)

**Q.** What about the MIC ([4]; strain M114-16) of the same molecule?
**A.** 0.5 µM (≈ 0.207 µg/mL)

**Q.** What about the MIC ([4]; strain M116-16) of the same molecule?
**A.** < 0.25 µM

**Q.** And the MIC ([4]; strain M117-16)?
**A.** 0.5 µM (≈ 0.207 µg/mL)

**Q.** And the MIC ([4]; strain M118-16)?
**A.** 0.5 µM (≈ 0.207 µg/mL)

**Q.** What about the MIC ([4]; strain M119-16) of the same molecule?
**A.** 1 µM (≈ 0.414 µg/mL)

**Q.** What about the MIC ([4]; strain M120-16) of the same molecule?
**A.** 2 µM (≈ 0.829 µg/mL)

**Q.** What about the MIC ([4]; strain M121-16) of the same molecule?
**A.** 1 µM (≈ 0.414 µg/mL)

**Q.** And the MIC ([4]; strain M122-16)?
**A.** 1 µM (≈ 0.414 µg/mL)

**Q.** And the MIC ([4]; strain M123-16)?
**A.** 4 µM (≈ 1.66 µg/mL)

**Q.** What about the MIC ([4]; strain M126-16) of the same molecule?
**A.** 1 µM (≈ 0.414 µg/mL)

**Q.** What about the MIC ([4]; strain M127-16) of the same molecule?
**A.** 2 µM (≈ 0.829 µg/mL)

**Q.** And the MIC ([4]; strain M128-16)?
**A.** 8 µM (≈ 3.32 µg/mL)

**Q.** What about the MIC ([4]; strain M129-16) of the same molecule?
**A.** 1 µM (≈ 0.414 µg/mL)

**Q.** What about the MIC ([4]; strain M130-16) of the same molecule?
**A.** 1 µM (≈ 0.414 µg/mL)

**Q.** And the MIC ([4]; strain UAMS-1)?
**A.** 4 µM (≈ 1.66 µg/mL)

**Q.** What about the MIC ([4]; strain mu50) of the same molecule?
**A.** > 8 µM

**Q.** What about the “Inhibition of Mu50 and USA200 strains” value ([4]; nafcillin at 8 μM) of the same molecule?
**A.** did not inhibit

**Q.** And the “Activity against 48-hour biofilms” value [5]?
**A.** did not

**Q.** And the MIC (E. faecium V286-17 (VRE); Table 7)?
**A.** > 12.5 µM
